Source: patent publication US20230066011A1, “PYRROLOPYRIMIDINE DERIVATIVE, AND PHARMACEUTICAL COMPOSITION FOR PREVENTING OR TREATING PROTEIN KINASE-RELATED DISEASE COMPRISING SAME AS ACTIVE INGREDIENT” (VORONOI CO., LTD., priority 2019, published 2023)

Legend:
human DYRK1A and tau = experiment: Inhibition of tau phosphorylation, ClariCELL Kinase Cell-Based Assay, HEK 293 cells expressing human DYRK1A and tau; conditions: for inhibition at 1 µM: HEK293, read-out: % inhibition at 1 uM, tau phosphorylation, compound 1 uM; for inhibition at 0.25 µM / inhibition at 0.5 µM: HEK293, tau phosphorylation; for inhibition at 0.25 µM: compound 0.25 uM; for inhibition at 0.5 µM: compound 0.5 uM
Protocol: An inhibitory effect on tau phosphorylation was determined using the ClariCELL™ Kinase Cell-Based Assay service (commercially available from CamaBio USA, Inc.). Human embryonic kidney (HEK 293) cells temporarily expressing human DYRK1A and tau were exposed to the compound, and then lysed to release cell proteins. In this case, the released tau was captured on a plate, and a degree of phosphorylation was quantified by ELISA using a tau phosphorylation-specific antibody.

human GST-CLK1 = target: T1, human GST-CLK1 (Homo sapiens, UniProt P49759); experiment: GST-CLK1 enzyme inhibition, ADP-Glo kinase assay; type: biochemical; conditions: ATP 10 μM, GST-CLK1 129-end
T1 construct: purified human GST-CLK1 (129-end, SignalChem) enzyme; purchased SignalChem
T1 sequence (P49759 129-484 limits assumed): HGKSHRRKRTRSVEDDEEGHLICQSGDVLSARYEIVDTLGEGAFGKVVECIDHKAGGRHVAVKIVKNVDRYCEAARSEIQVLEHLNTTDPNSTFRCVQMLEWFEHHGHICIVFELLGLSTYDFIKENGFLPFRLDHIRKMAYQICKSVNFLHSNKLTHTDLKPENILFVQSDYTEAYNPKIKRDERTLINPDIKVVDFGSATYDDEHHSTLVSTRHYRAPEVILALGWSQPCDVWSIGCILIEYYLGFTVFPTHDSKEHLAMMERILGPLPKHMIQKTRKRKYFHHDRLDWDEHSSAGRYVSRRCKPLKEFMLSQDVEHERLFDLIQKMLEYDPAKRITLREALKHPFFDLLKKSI
How it was run: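 ADP-Glo luminescence read-out, relative to untreated solvent control, gave IC50 (nM) from triplicate data sets. Reactions ran an hour at 25° C with 3 ng GST-CLK1 (residues 129-end), 10 μM ATP and specific substrate in Tris-HCl pH 7.4 buffer with MgCl2, BSA and DTT.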

human GST-DYRK1A = target: T2, human GST-DYRK1A (Homo sapiens, UniProt Q13627); experiment: GST-DYRK1A enzyme inhibition, ADP-Glo kinase assay; type: biochemical; conditions: ATP 10 μM, GST-DYRK1A full length, read-out: DYRK1 IC50
T2 construct: purified human GST-DYRK1A (full length, Thermo Scientifics) enzyme; purchased Thermo Scientifics
How it was run: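 Full-length enzyme (10 ng) was incubated with 10 μM ATP and a specific substrate for 1 h at 25 °C in 40 mM Tris-HCl pH 7.4, 20 mM MgCl2, 0.5 mg/mL BSA, 50 μM DTT. Luminescence was read against a solvent control, and IC50 values were derived from 3 data sets.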

LRRK2 (G2019S) = LRRK2 (G2019S) (Homo sapiens, UniProt Q5S007, G2019S); experiment: LRRK2 G2019S enzyme inhibition, ADP-Glo kinase assay; type: biochemical; design: purchased SignalChem L10-12GG; conditions: ATP 25 μM
LRRK2 (G2019S), sequence (Q5S007 970-2527 G2019S limits assumed): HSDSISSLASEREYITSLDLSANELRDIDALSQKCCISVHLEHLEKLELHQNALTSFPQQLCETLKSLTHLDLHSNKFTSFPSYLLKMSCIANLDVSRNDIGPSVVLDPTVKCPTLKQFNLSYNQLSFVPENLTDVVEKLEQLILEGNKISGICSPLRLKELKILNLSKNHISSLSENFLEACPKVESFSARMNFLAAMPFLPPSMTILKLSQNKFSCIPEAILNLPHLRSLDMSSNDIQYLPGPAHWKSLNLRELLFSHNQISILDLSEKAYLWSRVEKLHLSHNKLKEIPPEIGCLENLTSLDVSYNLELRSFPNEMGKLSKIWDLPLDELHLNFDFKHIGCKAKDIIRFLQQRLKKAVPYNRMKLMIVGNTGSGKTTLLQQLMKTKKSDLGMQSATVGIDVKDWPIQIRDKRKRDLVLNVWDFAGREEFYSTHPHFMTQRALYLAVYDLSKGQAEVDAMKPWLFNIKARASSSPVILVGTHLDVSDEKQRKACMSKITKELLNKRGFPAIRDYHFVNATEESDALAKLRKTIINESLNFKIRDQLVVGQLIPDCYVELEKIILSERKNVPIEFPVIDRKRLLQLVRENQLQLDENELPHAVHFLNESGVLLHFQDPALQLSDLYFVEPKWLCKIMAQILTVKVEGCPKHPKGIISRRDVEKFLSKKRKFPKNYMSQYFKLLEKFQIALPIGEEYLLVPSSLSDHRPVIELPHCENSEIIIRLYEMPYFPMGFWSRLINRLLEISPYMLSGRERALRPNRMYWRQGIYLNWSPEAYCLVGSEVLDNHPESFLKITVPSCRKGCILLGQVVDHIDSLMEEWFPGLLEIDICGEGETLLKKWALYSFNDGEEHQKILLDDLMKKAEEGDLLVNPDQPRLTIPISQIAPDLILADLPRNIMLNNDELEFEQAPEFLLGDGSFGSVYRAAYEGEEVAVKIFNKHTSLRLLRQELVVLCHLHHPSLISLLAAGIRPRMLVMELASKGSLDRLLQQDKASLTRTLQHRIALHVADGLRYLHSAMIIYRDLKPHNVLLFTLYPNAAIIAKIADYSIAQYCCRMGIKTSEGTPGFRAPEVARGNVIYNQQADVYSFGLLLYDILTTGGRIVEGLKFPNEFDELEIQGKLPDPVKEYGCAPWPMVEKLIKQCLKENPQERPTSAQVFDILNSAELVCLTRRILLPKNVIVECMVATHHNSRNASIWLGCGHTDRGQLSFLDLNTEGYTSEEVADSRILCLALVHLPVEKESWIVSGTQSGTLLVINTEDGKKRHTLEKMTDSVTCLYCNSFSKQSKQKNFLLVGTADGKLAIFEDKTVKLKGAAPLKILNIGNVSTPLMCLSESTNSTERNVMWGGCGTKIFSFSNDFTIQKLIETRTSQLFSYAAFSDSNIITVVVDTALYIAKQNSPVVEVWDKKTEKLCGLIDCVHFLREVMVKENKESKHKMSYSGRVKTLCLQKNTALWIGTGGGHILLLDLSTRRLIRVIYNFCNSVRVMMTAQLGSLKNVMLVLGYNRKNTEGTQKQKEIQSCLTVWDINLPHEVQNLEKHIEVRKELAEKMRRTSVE
How it was run: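 IC50 derived from luminescent ADP-Glo readout against untreated solvent control, twelve final compound concentrations from 50 μM downward. Reaction: recombinant human LRRK2 G2019S enzyme, 25 μM ATP, substrate, pH 7.4 Tris buffer with MgCl2/BSA/DTT, 25° C. for 2 hours.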

LRRK2 = LRRK2 (Homo sapiens, UniProt Q5S007); experiment: LRRK2 enzyme inhibition, ADP-Glo kinase assay; type: biochemical; design: purchased Invitrogen PR8604B; conditions: ATP 10 μM
LRRK2, sequence (Q5S007 970-2527 limits assumed): as the sequence (Q5S007 970-2527 G2019S limits assumed) above, with S1050G counted along it
How it was run: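 ADP-Glo luminescent read-out of ADP formed by purified human LRRK2 enzyme (25 ng), 10 μM ATP, 0.2 μg substrate, 25° C for 2 h, Tris-HCl pH 7.4 buffer with MgCl2, BSA, DTT. Inhibition versus untreated solvent control over twelve final concentrations (50 μM downward) gives IC50.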

MDA-MB-231 cell line = experiment: Inhibition of proliferation of MDA-MB-231 cancer cells (Cell Titer-Glo); type: cell-based; conditions: Homo sapiens, 72 hours
Protocol: To evaluate an inhibitory effect on the proliferation of cancer cells, each of an MDA-MB-231 cell line (Korean Cell Line Bank #30026) and an MDA-MB-468 cell line as triple-negative breast cancer cell lines, and SHP-77 (ATCC #CRL-2195) as a small-cell lung cancer cell line was cultured in DMEM (HyClone #SH30243) or an RPMI medium (HyClone #SH3027.01) to analyze a cell growth rate. More specifically, a cell line was plated on a 96-well flat bottom plate (Corning #3903) at a density of 2,000 cells/100 μL per well, and then treated with 11 concentrations of the Example compound, a solution of which was diluted 3-fold so that a final concentration of the compound was 10.000000, 3.333333, 1.111111, 0.370370, 0.123457, 0.041152, 0.013717, 0.004572, 0.001524, 0.000508, and 0.000169 μM. After 72 hours, each of the culture media was treated with 100 μL of Cell Titer-Glo (Promega G7573), and then cultured at room temperature for 10 minutes. Then, a degree of luminescence was measured using a microplate reader. A GI50 value was calculated from the measured degree of luminescence using Prism (Version 8.2 GraphPad) software.

Row | IC50 (human GST-CLK1) [µM] | IC50 (human GST-DYRK1A) [µM] | IC50 (LRRK2 (G2019S)) [µM] | IC50 (LRRK2) [µM] | GI50 (MDA-MB-231 cell line) [nM] | SMILES | inhibition at 1 µM (human DYRK1A and tau) [%] | inhibition at 0.25 µM (human DYRK1A and tau) [%] | inhibition at 0.5 µM (human DYRK1A and tau) [%]
1 | < 0.1 | < 0.1 | < 0.1 | < 0.1 |  | N#Cc1c[nH]c2nc(Nc3ccc(C(=O)N4CCC(N5CCOCC5)CC4)c4c3OCC4)nc(NC3CCCCC3)c12 [Example 322, 4-(cyclo-hexylamino)-2-((4-(4-morpholino-piperidine-1-carbonyl)-2,3-dihydro-benzofuran-7-yl)amino)-7H-pyrrolo[2,3-d]pyrimidine-5-carbonitirle] | 64.3 | -10.5 | 34.2
2 | < 0.1 | 0.301 to 1 |  |  |  | N#Cc1c[nH]c2nc(Nc3ccc(C(=O)N4CCN(C5COC5)CC4)c4c3OCCO4)nc(NC3CCOCC3)c12 [Example 316, 2-((8-(4-(oxetan-3-yl)piperazine-1-carbonyl)-2,3-dihydrobenzo[b] [1,4]dioxin-5-yl)amino)-4-((tetrahydro-2H-pyran-4-yl)amino)-7H-pyrrolo[2,3-d]pyrimidine-5-carbonitrile] | 15.8 | 2.3 | 8.3
3 | < 0.1 | < 0.1 |  |  |  | CNc1nc(Nc2ccc(C(=O)N3CCOCC3)c3c2OCC3)nc2[nH]cc(C(F)(F)F)c12 [Example 218, (7-((4-(methylamino)-5-(trifluoromethyl)-7H-pyrrolo[2,3-d]pyrimidin-2-yl)amino)-2,3-dihydrobenzofuran-4-yl)(morpholino)methanone] | 99.4 | 57.7 | 84.3
4 | < 0.1 | 0.101 to 0.3 |  |  |  | CC(C)Nc1nc(Nc2ccc(C(=O)N3CCN(C4COC4)CC3)c3c2OCCO3)nc2[nH]cc(C(F)(F)F)c12 [Example 441, (8-((4-(isopropylamino)-5-(trifluoromethyl)-7H-pyrrolo[2,3-d]pyrimidin-2-yl)amino)-2,3-dihydrobenzo[b] [1,4]dioxin-5-yl) (4-(oxetan-3-yl)piperazin-1-yl)methanone] | 75.5 | 19.6 | 57.4
5 | 0.301 to 1 | 0.301 to 1 | < 0.1 |  |  | CCCCNc1nc(Nc2ccc(C(=O)N3CCC(N4CCOCC4)CC3)c3c2OCC3)nc2[nH]cc(C(F)(F)F)c12 [Example 466, (7-((4-(butylamino)-5-(trifluoromethyl)-7H-pyrrolo[2,3-d]pyrimidin-2-yl)amino)-2,3-dihydrobenzo-furan-4-yl)(4-morpholino-piperidin-1-yl)methanone] | 71.3 | 9.5 | 39.2

The remaining lines, values behind:

Row | SMILES | IC50 (human GST-CLK1) [µM] | IC50 (human GST-DYRK1A) [µM] | IC50 (LRRK2 (G2019S)) [µM] | IC50 (LRRK2) [µM] | GI50 (MDA-MB-231 cell line) [nM] | inhibition at 1 µM (human DYRK1A and tau) [%] | inhibition at 0.25 µM (human DYRK1A and tau) [%] | inhibition at 0.5 µM (human DYRK1A and tau) [%]
6 | CCNc1nc(Nc2ccc(C(=O)N3CC(CO)(CO)C3)c3c2OCCO3)nc2[nH]cc(C#N)c12 [Example 326, 2-((8-(3,3-bis(hydroxy-methyl)azetidine-1-carbonyl)-2,3-dihydrobenzo[b] [1,4]dioxin-5-yl)amino)-4-(ethylamino)-7H-pyrrolo[2,3-d]pyrimidine-5-carbonitrile] | < 0.1 | 0.101 to 0.3 |  |  |  | -1.8 | -0.6 | 13.6
7 | N#Cc1c[nH]c2nc(Nc3ccc(C(=O)N4CCC(N5CCOCC5)CC4)c4c3OCC4)nc(NCC3CCCC3)c12 [Example 343, 4-((cyclo-pentylmeth-yl)amino)-2-((4-(4-morpholinopiperidine-- 1-carbonyl)-2,3-dihydro-benzofuran-7-yl)amino)-7H-pyrrolo[2,3-d]pyrimidine-5-carbonitrile] | 0.301 to 1 | 0.301 to 1 | < 0.1 |  |  | 52 | -44.3 | 16.7
8 | COc1cc(P2(=O)CCN(C3CC3)CC2)ccc1Nc1nc(NC(C)C)c2c(C(F)(F)F)c[nH]c2n1 [Example 440, 1-cyclopropyl-4-(4-((4-(isopropylamino)-5-(trifluoromethyl)-7H-pyrrolo[2,3-d]pyrimidin-2-yl)amino)-3-methoxyphenyl)-1,4-azaphosphinane 4-oxide] | 0.301 to 1 | 0.301 to 1 | < 0.1 |  |  | 36.3 | 9.6 | 27.8
9 | CCNc1nc(Nc2ccc(P3(=O)CCN(C4CCOCC4)CC3)cc2OC)nc2[nH]cc(C(F)(F)F)c12 [Example 439, 4-(4-((4-(ethylamino)-5-(trifluoromethyl)-7H-pyrrolo[2,3-d]pyrimidin-2-yl)amino)-3-methoxyphenyl)-1-(tetrahydro-2H-pyran-4-yl)-1,4-azaphosphinane 4-oxide] | < 0.1 | < 0.1 |  | < 0.1 |  | 55.7 | 18.8 | 43.6
10 | COCC(C)(C)Nc1nc(Nc2ccc(S(=O)(=O)N3CCC(N4CCOCC4)CC3)cc2OC)nc2[nH]cc(C(F)(F)F)c12 [Example 176, N^4-(1-methoxy-2-methylpropan-2-yl)-N^2-(2-methoxy-4-((4-morpholinopiperidin-1-yl)sulfonyl)phenyl)-5-(trifluoromethyl)-7H-pyrrolo[2,3-d]pyrimidine-2,4-diamine] | 0.301 to 1 | 0.301 to 1 | 0.301 to 1 | 0.301 to 1 | 101 to 300 |  |  | 
11 | O=C(c1ccc(Nc2nc(NCC3CCCC3)c3c(C(F)(F)F)c[nH]c3n2)c2c1CCO2)N1CCC(N2CCOCC2)CC1 [Example 464, (7-((4-((cyclo-pentylmeth-yl)amino)-5-(trifluoromethyl)-7H-pyrrolo[2,3-d]pyrimidin-2-yl)amino)-2,3-dihydrobenzo-furan-4-yl)(4-morpholino-piperidin-1-yl)methanone] | 0.301 to 1 | 0.301 to 1 | < 0.1 |  |  | 44.2 | 11.5 | 12.4
12 | O=C(c1ccc(Nc2nc(NCC3CC3)c3c(C(F)(F)F)c[nH]c3n2)c2c1OCCO2)N1CCN(C2COC2)CC1 [Example 422, (8-((4-((cyclo-propylmeth-yl)amino)-5-(trifluoromethyl)-7H-pyrrolo[2,3-d]pyrimidin-2-yl)amino)-2,3-dihydrobenzo[b] [1,4]dioxin-5-yl) (4-(oxetan-3-yl)piperazin-1-yl)methanone] | < 0.1 | 0.301 to 1 | < 0.1 |  |  | 33.2 | 7.4 | 19.6
13 | CC[C@H](C)Nc1nc(Nc2ccc(C(=O)N3CCC(N4CCOCC4)CC3)c3c2OCC3)nc2[nH]cc(C#N)c12 [Example 357, (S)-4-(sec-butylamino)-2-((4-(4-morpholino-piperidine-1-carbonyl)-2,3-dihydro-benzofuran-7-yl)amino)-7H-pyrrolo[2,3-d]pyrimidine-5-carbonitrile] | < 0.1 | 0.301 to 1 | < 0.1 |  |  | 35.4 | 19.7 | 33.1
14 | CNc1nc(Nc2ccc(C(=O)N3CC(CO)(CO)C3)c3c2OCCO3)nc2[nH]cc(C#N)c12 [Example 325, 2-((8-(3,3-bis(hydroxy-methyl)azetidine-1-carbonyl)-2,3-dihydrobenzo[b] [1,4]dioxin-5-yl)amino)-4-(methylamino)-7H-pyrrolo[2,3-d]pyrimidine-5-carbonitrile] | < 0.1 | 0.101 to 0.3 |  |  |  | 1.9 | 6.3 | 13.5
